Assay results reported in ChEMBL document CHEMBL5029178, “Discovery of 3-amino-4-{(3S)-3-[(2-ethoxyethoxy)methyl]piperidin-1-yl}thieno[2,3-b]pyridine-2-carboxamide (DS96432529): A potent and orally active bone anabolic agent” (Bioorg Med Chem Lett, 2021).
Values after ≈ are worked out from the molar mass of the structure shown. Blank lines part the entries; values can stand above or below the molecule they belong to. Active and inactive are the calls of the source. The rule behind the calls is not given here.

Key:
[1] = system: ST-2; test: […] of alkaline phosphatase activity in mouse ST-2 cells; assay type: cell-based
[2] = Effective permeability coefficient at pH 7.4 by PAMPA method; assay type: ADME; details: read-out: Peff
[3] = Effective permeability coefficient at pH 5 by PAMPA method; assay type: ADME; details: read-out: Peff
[4] = AUC (0 to 8 hrs) in Fischer 344 rat at 3 mg/kg, po; assay type: ADME, organism-based; set-up: time < 8 hr, route oral, dose 3 mg/kg; details: in vivo
[5] = Cmax in Fischer 344 rat at 3 mg/kg, po; assay type: ADME, organism-based; set-up: route oral, dose 3 mg/kg; details: in vivo
[6] = Solubility of the compound in JP2 fluid at pH 6.8; assay type: physicochemical
[7] = Metabolic stability in human liver microsomes assessed as compound remaining at 0.5 mg/ml measured after 30 mins; assay type: ADME, Microsome; details: read-out: Stability
[8] = target: CYP2C19 (Homo sapiens, UniProt P33261); test: Inhibition of CYP2C19 (unknown origin) at 10 uM; assay type: ADME
Chain of CYP2C19 (P33261 whole entry): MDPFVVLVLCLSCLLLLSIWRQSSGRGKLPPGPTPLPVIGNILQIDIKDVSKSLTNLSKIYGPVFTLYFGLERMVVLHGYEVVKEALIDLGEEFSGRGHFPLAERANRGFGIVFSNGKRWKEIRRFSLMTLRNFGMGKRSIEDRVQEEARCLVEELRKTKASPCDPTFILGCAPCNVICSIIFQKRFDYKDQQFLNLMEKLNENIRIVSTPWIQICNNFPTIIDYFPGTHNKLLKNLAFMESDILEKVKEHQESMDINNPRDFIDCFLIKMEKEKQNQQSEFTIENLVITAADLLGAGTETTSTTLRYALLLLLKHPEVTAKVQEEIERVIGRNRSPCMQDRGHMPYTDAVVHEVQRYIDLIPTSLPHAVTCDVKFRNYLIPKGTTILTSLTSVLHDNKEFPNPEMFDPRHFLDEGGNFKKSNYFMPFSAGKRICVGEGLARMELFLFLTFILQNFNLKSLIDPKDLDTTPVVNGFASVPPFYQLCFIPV

[9] = target: T1, CYP1A2 (Homo sapiens, UniProt P05177); test: Inhibition of CYP1A2 (unknown origin) at 10 uM; assay type: ADME
T1 sequence (P05177 whole entry): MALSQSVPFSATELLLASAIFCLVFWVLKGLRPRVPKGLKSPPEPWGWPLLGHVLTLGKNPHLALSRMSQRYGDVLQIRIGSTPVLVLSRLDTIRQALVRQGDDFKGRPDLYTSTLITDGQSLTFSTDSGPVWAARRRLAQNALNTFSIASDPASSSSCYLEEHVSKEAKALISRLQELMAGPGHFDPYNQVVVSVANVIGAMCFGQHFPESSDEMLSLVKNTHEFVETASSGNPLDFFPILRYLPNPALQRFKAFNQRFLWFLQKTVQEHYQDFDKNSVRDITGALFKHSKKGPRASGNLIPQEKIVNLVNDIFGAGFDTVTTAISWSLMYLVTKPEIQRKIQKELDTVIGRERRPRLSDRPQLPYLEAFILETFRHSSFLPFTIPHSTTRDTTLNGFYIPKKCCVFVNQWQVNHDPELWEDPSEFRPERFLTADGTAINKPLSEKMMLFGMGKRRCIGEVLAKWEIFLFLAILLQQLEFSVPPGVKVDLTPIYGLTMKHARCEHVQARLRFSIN

[10] = target: CYP2C9 (Homo sapiens, UniProt P11712); test: Inhibition of CYP2C9 (unknown origin) at 10 uM; assay type: ADME
Chain of CYP2C9 (P11712 whole entry): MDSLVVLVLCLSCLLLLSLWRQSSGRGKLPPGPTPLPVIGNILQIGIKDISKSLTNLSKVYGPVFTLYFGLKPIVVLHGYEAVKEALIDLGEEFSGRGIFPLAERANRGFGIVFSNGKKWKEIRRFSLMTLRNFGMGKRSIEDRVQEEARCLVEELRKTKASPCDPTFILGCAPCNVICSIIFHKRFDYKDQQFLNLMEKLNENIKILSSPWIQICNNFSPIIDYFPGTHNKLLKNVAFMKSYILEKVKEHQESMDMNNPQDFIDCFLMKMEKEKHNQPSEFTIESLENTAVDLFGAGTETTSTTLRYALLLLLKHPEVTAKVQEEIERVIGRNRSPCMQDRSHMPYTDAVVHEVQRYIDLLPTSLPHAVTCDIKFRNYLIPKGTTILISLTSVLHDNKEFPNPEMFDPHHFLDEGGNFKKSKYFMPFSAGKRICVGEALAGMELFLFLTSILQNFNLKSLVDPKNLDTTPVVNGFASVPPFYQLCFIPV

[11] = target: T2, CYP3A4 (Homo sapiens, UniProt P08684); test: Time dependent inhibition of CYP3A4 in human liver microsomes assessed as parent compound remaining at 100 uM; assay type: ADME; details: read-out: TDI
T2 sequence (P08684 whole entry): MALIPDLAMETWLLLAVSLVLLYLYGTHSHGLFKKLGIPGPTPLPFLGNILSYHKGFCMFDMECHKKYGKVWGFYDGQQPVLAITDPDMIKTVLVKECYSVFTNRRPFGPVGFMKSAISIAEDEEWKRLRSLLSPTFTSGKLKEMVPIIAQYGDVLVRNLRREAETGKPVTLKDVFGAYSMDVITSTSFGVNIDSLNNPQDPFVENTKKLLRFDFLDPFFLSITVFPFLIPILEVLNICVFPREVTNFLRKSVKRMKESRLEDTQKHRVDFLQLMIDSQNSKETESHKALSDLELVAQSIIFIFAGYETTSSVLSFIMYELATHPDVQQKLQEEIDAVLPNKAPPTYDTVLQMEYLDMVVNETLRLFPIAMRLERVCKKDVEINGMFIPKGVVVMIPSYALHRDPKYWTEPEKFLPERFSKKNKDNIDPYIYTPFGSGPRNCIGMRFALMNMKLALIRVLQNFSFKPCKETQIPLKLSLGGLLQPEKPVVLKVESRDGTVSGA

[12] = target: T2, CYP3A4; test: Inhibition of CYP3A4 (unknown origin) at 10 uM; assay type: ADME
[13] = target: CYP2D6 (Homo sapiens, UniProt P10635); test: Inhibition of CYP2D6 (unknown origin) at 10 uM; assay type: ADME
Chain of CYP2D6 (P10635 whole entry): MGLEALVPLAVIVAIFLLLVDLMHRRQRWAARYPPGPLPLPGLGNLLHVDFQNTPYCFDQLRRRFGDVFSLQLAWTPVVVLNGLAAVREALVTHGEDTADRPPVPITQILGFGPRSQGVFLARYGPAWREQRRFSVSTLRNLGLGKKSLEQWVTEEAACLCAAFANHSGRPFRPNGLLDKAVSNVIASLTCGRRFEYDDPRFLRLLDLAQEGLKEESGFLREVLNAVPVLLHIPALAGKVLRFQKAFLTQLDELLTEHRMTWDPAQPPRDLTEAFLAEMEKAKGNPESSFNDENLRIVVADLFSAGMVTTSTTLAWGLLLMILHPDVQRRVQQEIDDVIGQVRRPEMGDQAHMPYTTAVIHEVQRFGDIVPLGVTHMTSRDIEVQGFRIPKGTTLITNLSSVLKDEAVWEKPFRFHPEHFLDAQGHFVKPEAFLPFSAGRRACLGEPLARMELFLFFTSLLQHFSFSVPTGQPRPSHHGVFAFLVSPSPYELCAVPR

[14] = system: Rattus norvegicus; test: Anti-osteoporosis activity in ovariectomized rat assessed as […] in areal bone mineral density in humeral diaphysis at 1 mg/kg, po qd measured after 14 weeks; assay type: functional, organism-based
[15] = system: Rattus norvegicus; test: Anti-osteoporosis activity in ovariectomized rat assessed as […] in areal bone mineral density in humeral diaphysis at 3 mg/kg, po qd measured after 14 weeks; assay type: functional, organism-based
[16] = system: Rattus norvegicus; test: Anti-osteoporosis activity in ovariectomized rat assessed as […] in areal bone mineral density in total humerus at 1 mg/kg, po qd measured after 14 weeks; assay type: functional, organism-based
[17] = system: Rattus norvegicus; test: Antiosteoporotic activity against OVX-induced rat model assessed as increase in deo-xypyridinoline level at 0.3 mg/kg/day; assay type: functional, organism-based
[18] = system: Rattus norvegicus; test: Antiosteoporotic activity against OVX-induced rat model assessed as increase in osteocalcin secretion in serum at 3 mg/kg/day; assay type: functional, organism-based
[19] = system: Rattus norvegicus; test: Anti-osteoporosis activity in ovariectomized rat assessed as increase in bone strength at 1 mg/kg, po; assay type: functional, organism-based
[20] = AUC in Fischer 344 rat at 100 mg/kg, po; assay type: ADME, organism-based; set-up: dose 100 mg/kg; details: in vivo

Compound: Cn1cnnc1COC[C@H]1CCCN(c2ccnc3sc(C(N)=O)c(N)c23)C1
EC200 [1]: 0.168 µg/mL

Compound: NC(=O)c1sc2nccc(N3CCCC(O)C3)c2c1N (stereo not drawn)
EC200 [1]: 0.17 µg/mL

Papp [2]: 2.9 ×10⁻⁶ cm/s
Papp [3]: 2.8 ×10⁻⁶ cm/s
AUC(0-t) at 8 h [4]: 320 ng·h/mL
Cmax [5]: 114 ng/mL
Compound: NC(=O)c1sc2nccc(N3CCC[C@H](COCCO)C3)c2c1N
EC200 [1]: 0.017 µg/mL

Compound: NC(=O)c1sc2nccc(N3CCCC(CO)C3)c2c1N (stereo not drawn)
EC200 [1]: 0.076 µg/mL

AUC(0-t) at 8 h [4]: 227 ng·h/mL
Cmax [5]: 80.5 ng/mL
solubility [6]: 220 µg/mL (≈ 687 µM)
Compound: COC[C@H]1CCCN(c2ccnc3sc(C(N)=O)c(N)c23)C1
EC200 [1]: 0.022 µg/mL

Compound: CCOCC1CCCN(c2ccnc3sc(C(N)=O)c(N)c23)C1 (stereo not drawn)
EC200 [1]: 0.031 µg/mL

Compound: COC(C)[C@H]1CCCN(c2ccnc3sc(C(N)=O)c(N)c23)C1 (stereo partly drawn)
EC200 [1]: 0.146 µg/mL

Compound: CC1CCN(c2ccnc3sc(C(N)=O)c(N)c23)CC1
EC200 [1]: 0.23 µg/mL

remaining at 0.5 h [7]: 20%
inhibition at 10 µM [8]: 0%
inhibition at 10 µM [9]: 62%
inhibition at 10 µM [10]: 4%
remaining at 100 µM [11]: 92%
inhibition at 10 µM [12]: 23%
inhibition at 10 µM [13]: 9%
Compound: NC(=O)c1sc2nccc(N3CCCCC3)c2c1N
EC200 [1]: 0.067 µg/mL

Compound: COCCCC1CCCN(c2ccnc3sc(C(N)=O)c(N)c23)C1 (stereo not drawn)
EC200 [1]: 0.026 µg/mL

Compound: CCCOCC1CCCN(c2ccnc3sc(C(N)=O)c(N)c23)C1 (stereo not drawn)
EC200 [1]: 0.095 µg/mL

Compound: COC[C@@H]1CCCN(c2ccnc3sc(C(N)=O)c(N)c23)C1
EC200 [1]: 0.25 µg/mL

AUC(0-t) at 8 h [4]: 756 ng·h/mL
Cmax [5]: 217 ng/mL
Compound: NC(=O)c1sc2nccc(N3CCC[C@H](COCC(=O)N4CCOCC4)C3)c2c1N
EC200 [1]: 0.014 µg/mL

Compound: COCC1CCCN(c2ccnc3sc(C(N)=O)c(N)c23)C1 (stereo in doubt; 9g) [listing 1 of 2 here]
EC200 [1]: 0.049 µg/mL

remaining at 0.5 h [7]: 18%
Compound: CC1CCCN(c2ccnc3sc(C(N)=O)c(N)c23)C1 (stereo not drawn)
EC200 [1]: 0.024 µg/mL

AUC(0-t) at 8 h [4]: 722 ng·h/mL
Cmax [5]: 188 ng/mL
Compound: Cc1cc(N2CCC[C@H](COCc3nc(C)no3)C2)c2c(N)c(C(N)=O)sc2n1
EC200 [1]: 0.026 µg/mL

Compound: CC(C)OC[C@H]1CCCN(c2ccnc3sc(C(N)=O)c(N)c23)C1
EC200 [1]: 0.057 µg/mL

AUC(0-t) at 8 h [4]: 1350 ng·h/mL
Cmax [5]: 357 ng/mL
solubility [6]: 560 µg/mL (≈ 1430 µM)
Compound: CCOCCOC[C@H]1CCCN(c2cc(C)nc3sc(C(N)=O)c(N)c23)C1
EC200 [1]: 0.03 µg/mL

Compound: CN(C)c1ccnc2sc(C(N)=O)c(N)c12
EC200 [1]: 0.17 µg/mL

inhibition at 10 µM [8]: 15%
inhibition at 10 µM [9]: 33%
inhibition at 10 µM [10]: 2%
remaining at 100 µM [11]: 82%
inhibition at 10 µM [12]: 10%
AUC(0-t) at 8 h [4]: 2000 ng·h/mL
Cmax [5]: 804 ng/mL
inhibition at 10 µM [13]: 2%
solubility [6]: 500 µg/mL (≈ 1320 µM)
Compound: CCOCCOC[C@H]1CCCN(c2ccnc3sc(C(N)=O)c(N)c23)C1
Activity [14]: Active
Activity [15]: Active
Activity [16]: Active
Activity [17]: Active
Activity [18]: Active
EC200 [1]: 0.024 µg/mL
Activity [19]: Active

AUC(0-t) at 8 h [4]: 45 ng·h/mL
Cmax [5]: 15.1 ng/mL
Compound: Cn1ccnc1COC[C@H]1CCCN(c2ccnc3sc(C(N)=O)c(N)c23)C1
EC200 [1]: 0.019 µg/mL

Compound: Cc1cc(Oc2ccc(CCCC(=O)N(C)C)cc2F)c2c(N)c(C(N)=O)sc2n1
EC200 [1]: 0.0005 µg/mL

Compound: COCC1CCCN(c2ccnc3sc(C(N)=O)c(N)c23)C1 (racemic)
EC200 [1]: 0.049 µg/mL

AUC(0-t) at 8 h [4]: 563 ng·h/mL
Cmax [5]: 158 ng/mL
Compound: Cc1noc(COC[C@H]2CCCN(c3ccnc4sc(C(N)=O)c(N)c34)C2)n1
EC200 [1]: 0.017 µg/mL

AUC [20]: 18800 ng·h/mL
Compound: NC(=O)c1sc2nccc(N3CCCC(C(=O)O)C3)c2c1N (stereo not drawn)
EC200 [1]: > 0.3 µg/mL

remaining at 100 µM [11]: 28%
Compound: NC(=O)c1sc2nccc(N3CCCN(c4ccccc4)CC3)c2c1N
EC200 [1]: 0.051 µg/mL

Compound: COCCC1CCCN(c2ccnc3sc(C(N)=O)c(N)c23)C1 (stereo not drawn)
EC200 [1]: 0.26 µg/mL

Compound: CN(C)C(=O)C1CCCN(c2ccnc3sc(C(N)=O)c(N)c23)C1 (stereo not drawn)
EC200 [1]: > 0.3 µg/mL

remaining at 0.5 h [7]: 66%
Compound: COCC1CCCN(c2ccnc3sc(C(N)=O)c(N)c23)C1 (stereo in doubt; 9g) [listing 2 of 2 here]

Compound: Cc1nsc(COC[C@H]2CCCN(c3ccnc4sc(C(N)=O)c(N)c34)C2)n1
EC200 [1]: 0.05 µg/mL
